From patent US11478474B2, “2-(3′-(hydroxymethyl)-1-methyl-5-((5-(2-methyl-4-(oxetan-3-yl)piperazin-1-yl)pyridin-2-yl)amino)-6-oxo-1,6-dihydro-[3,4′-bipyridin]-2′-yl)-7,7-dimethyl-7,8-dihydro-2H-cyclopenta[4,5]pyrrolo[1,2-a]pyrazin-1(6H)-one as a BTK inhibitor” (HUTCHISON MEDIPHARMA LIMITED, priority 2020, dated 2022)

Tests used:
BTK recombinant protein = BTK recombinant protein (Homo sapiens (Human), UniProt Q06187); assay: Determination of biochemical BTK (Z'-LYTE kinase assay)
In short: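 Human BTK recombinant kinase (3.32 nM final) was preincubated with compound for 30 min at 4 °C. Reaction ran 1 h at room temperature with Tyr01 FRET peptide (2 μM) and ATP (32 μM); development protease then added. Coumarin 445 nm/fluorescein 520 nm emission ratio (400 nm excitation) gave inhibition across 8 concentrations, 3000–1.37 nM.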

[1] = system: B cell activation in rat whole blood; assay: Determination of B cell activity in whole blood of rats (anti-rat IgD induced B cell activation, flow cytometry); format: cell-based; settings: anti-rat immunoglobulin D 10 μg/mL, 18 hours, inhibition of B cell activation
Procedure: Example 4 Determination of B Cell Activity in Whole Blood of Rats
1. Reagents and Materials
Peripheral whole blood of female Wistar rats;
In the determination of the compound activity, the collected peripheral whole blood of rat was added to a 96 well plate at 80 μL/well and cultured in a 5% CO2, 37° C. cell incubator. After half an hour, the test compound was diluted with PBS in a 3-fold gradient to the corresponding concentrations, and then the diluted test compound with different concentrations was added to the culture system of rat whole blood at 10 μL/well (the final concentration of the test compound was 1.0, 0.33, 0.11, 0.037, 0.012, 0.0041, 0.0014, and 0.0005 μM, the final concentration of DMSO was 0.3%, double replicate wells), or the control solution (0.3% DMSO, 6 replicate wells) was added to the corresponding well at 10 μL/well, which were incubated in the cell incubator for one hour. Then 10 μL/well of anti-rat immunoglobulin D diluted in PBS (the final concentration was 10 μg/mL) was add to the treating wells of the test compound and control wells for anti-rat immunoglobulin D, or 10 μL/well of PBS was added to the negative control wells, which were mixed well to continue the culture in a 5% CO2, 37° C. cell incubator, and incubated for 18 hours.
On the second day, the 96-well plates were taken out and the flow cytometry antibody mixture (the final concentration of anti-rat B220PE antibody was 1 μg/mL and the final concentration of anti-rat CD86 FITC antibody was 1 μg/mL) diluted with PBS was added to each well of plate, which were incubated for 30 minutes in the dark, and then 50 μL of blood from each well was pipetted to the freshly prepared 500 μL of lysis buffer to lyse red blood cells. The plates were shaken for 20 minutes, centrifuged to remove the supernatant, then washed, fixed, and detected on a flow cytometer.
The B cell activation in the sample was determined by flow dyeing method.
The average value of the proportion of activated B cells in the wells with anti-rat immunoglobulin D but without the test compound was used as the control treating well for anti-rat immunoglobulin D, and the average value of the proportion of activated B cells in the wells without immunoglobulin D stimulation and without the test compound was used as the negative control treating well. According to the B cell activation ratio in each well, the inhibition ratio (%) of each concentration was calculated, and then the IC50 value was obtained by using the 205 model in XL-Fit 5.3 software (ID Business Solutions Limited).
The inhibition ratio is calculated as follows: inhibition ratio (%)=100%−{(treating well for the test compound−negative control treating well)/(control treating well for anti-rat immunoglobulin D−negative control treating well)}×100%, wherein,
Treating well for the test compound: represents the B cell activation ratio in rat whole blood treated with anti-rat immunoglobulin D and the test compound.
Control treating well for anti-rat immunoglobulin D: represents the B cell activation ratio in rat whole blood treated with anti-rat immunoglobulin D but without the test compound.
Negative control treating well: represents the B cell activation ratio in rat whole blood without the test compound and without immunoglobulin stimulation.
Through the above-mentioned test, the compound of the present invention has a potency to inhibit B cell activation in rat whole blood.

[2] = biological target: phosphorylated BTK in Ramos cells (Homo sapiens (Human), UniProt Q06187); assay: Determination of phosphorylated BTK in Ramos cells (BTK phospho-Y223 HTRF); format: cell-based; settings: anti-human IgM + hydrogen peroxide stimulation
In short: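 BTK Y223 phosphorylation measured by HTRF (665/615 nm) in lysates of Ramos cells. Cells were serum-starved 2 h, exposed to compound for 1 h (final 0.00018–3.0 μM, 0.3% DMSO), then stimulated 10 min with 10 μg/mL anti-IgM and 3.3 mM H2O2. IC50 derived from percent inhibition between unstimulated and stimulated controls.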

BTK recombinant protein, sequence (Q06187 whole entry): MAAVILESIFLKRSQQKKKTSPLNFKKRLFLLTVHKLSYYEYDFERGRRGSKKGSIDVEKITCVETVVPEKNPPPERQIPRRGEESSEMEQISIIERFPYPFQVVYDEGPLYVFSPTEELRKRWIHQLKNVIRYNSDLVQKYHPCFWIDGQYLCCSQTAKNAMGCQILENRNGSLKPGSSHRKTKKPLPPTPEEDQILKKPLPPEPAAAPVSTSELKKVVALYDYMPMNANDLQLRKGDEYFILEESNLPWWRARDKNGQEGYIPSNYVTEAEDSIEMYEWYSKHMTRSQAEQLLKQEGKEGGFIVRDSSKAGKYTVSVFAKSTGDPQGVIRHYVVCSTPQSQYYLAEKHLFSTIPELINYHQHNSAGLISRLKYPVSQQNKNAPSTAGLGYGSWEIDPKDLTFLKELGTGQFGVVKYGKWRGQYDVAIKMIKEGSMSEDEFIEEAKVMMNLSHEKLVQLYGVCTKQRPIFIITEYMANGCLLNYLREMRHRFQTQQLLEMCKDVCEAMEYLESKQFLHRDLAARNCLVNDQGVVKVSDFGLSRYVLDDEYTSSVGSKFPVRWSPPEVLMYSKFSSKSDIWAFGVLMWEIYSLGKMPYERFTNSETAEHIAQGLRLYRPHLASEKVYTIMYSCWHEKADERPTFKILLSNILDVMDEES
phosphorylated BTK in Ramos cells, sequence (Q06187 whole entry): as above

| Structure (SMILES) | IC50 (BTK recombinant protein) [nM] | IC50 [1] [nM] | IC50 [2] [nM] |
| --- | --- | --- | --- |
| C[C@@H]1CN(c2ccc(Nc3cc(-c4ccnc(-n5ccn6c7c(cc6c5=O)CC(C)(C)C7)c4CO)nn(C)c3=O)nc2)[C@@H](C)CN1C1COC1 [Compound 5] | 9 | 2 | – |
| C[C@H]1CN(C2COC2)CCN1c1ccc(Nc2nc(-c3ccnc(-n4ccn5c6c(cc5c4=O)CC(C)(C)C6)c3CO)cn(C)c2=O)nc1 [Compound 20] | – | 462 | 17 |
| CCn1cc(Nc2cc(-c3ccnc(-n4ccn5c6c(cc5c4=O)CC(C)(C)C6)c3CO)cn(C)c2=O)nn1 [Compound 24] | – | 85 | 14 |
| CCn1cc(-c2ccnc(-n3ccn4c5c(cc4c3=O)CC(C)(C)C5)c2CO)cc(Nc2ccc(N3CCN(C4COC4)C[C@@H]3C)cn2)c1=O [Compound 202] | 8 | – | 17 |
| C[C@@H]1CN(c2ccc(Nc3cc(-c4ccnc(-n5ccn6c7c(cc6c5=O)CC(C)(C)C7)c4CO)cn(C)c3=O)nn2)[C@@H](C)CN1C1COC1 [Compound 205] | 15 | – | 15 |
| CCn1cc(-c2ccnc(-n3ncn4c5c(cc4c3=O)CC(C)(C)C5)c2CO)cc(Nc2ccc(N3C[C@@H](C)N(C4COC4)C[C@@H]3C)cn2)c1=O [Compound 210] | 21 | – | 19 |
| CCn1cc(-c2ccnc(-n3ncn4c5c(cc4c3=O)CC(C)(C)C5)c2CO)cc(Nc2ccc(N3CCN(C4COC4)C[C@@H]3C)cn2)c1=O [Compound 211] | 17 | – | 20 |
| C[C@H]1COCCN1c1ccc(Nc2cc(-c3ccnc(-n4ncn5c6c(cc5c4=O)CC(C)(C)C6)c3CO)cn(C)c2=O)nn1 [Compound 212] | 10 | – | 11 |
| C[C@H]1CN(C2COC2)CCN1c1ccc(Nc2cc(-c3ccnc(-n4ncn5c6c(cc5c4=O)CC(C)(C)C6)c3CO)cn(C)c2=O)nn1 [Compound 213] | 15 | – | 15 |
| CCn1cc(-c2ccnc(-n3ccn4c5c(cc4c3=O)CC(C)(C)C5)c2CO)cc(Nc2ccc(N3CCOC[C@@H]3C)nn2)c1=O [Compound 214] | 31 | – | 24 |
| CCn1cc(-c2ccnc(-n3ccn4c5c(cc4c3=O)CC(C)(C)C5)c2CO)cc(Nc2ccc(N3C[C@@H](C)N(C4COC4)C[C@@H]3C)cn2)c1=O [Compound 215] | 31 | – | 51 |
| CC[C@H]1CN(C2COC2)CCN1c1ccc(Nc2cc(-c3ccnc(-n4ccn5c6c(cc5c4=O)CC(C)(C)C6)c3CO)cn(C)c2=O)nn1 [Compound 217] | 8 | – | 10 |
| C[C@@H]1CN(c2ccc(Nc3cc(-c4ccnc(-n5ccn6c7c(c(F)c6c5=O)CCCC7)c4CO)cn(C)c3=O)nc2)[C@@H](C)CN1C1COC1 [Compound 218] | 6 | – | 12 |
| COCCN1CCN(c2ccc(Nc3cc(-c4ccnc(-n5ncn6c7c(cc6c5=O)CC(C)(C)C7)c4CO)cn(C)c3=O)nc2)C(C)(C)C1 [Compound 220] | 5 | – | 16 |
| C[C@@H]1CN(c2ccc(Nc3cc(-c4ccnc(-n5ncn6c7c(c(F)c6c5=O)CCCC7)c4CO)cn(C)c3=O)nc2)[C@@H](C)CN1C1COC1 [Compound 221] | 8 | – | 12 |
| CC[C@H]1CN(C2COC2)CCN1c1ccc(Nc2cc(-c3ccnc(-n4ncn5c6c(cc5c4=O)CC(C)(C)C6)c3CO)cn(C)c2=O)nc1 [Compound 224] | 9 | – | 7 |
| Cn1cc(-c2ccnc(-n3ccn4c5c(c(F)c4c3=O)CCCC5)c2CO)cc(Nc2ccc(N3CCN(C4COC4)CC3(C)C)cn2)c1=O [Compound 225] | 11 | – | 9 |
| COCCN1CCN(c2ccc(Nc3cc(-c4ccnc(-n5ccn6c7c(cc6c5=O)CC(C)(C)C7)c4CO)cn(C)c3=O)nc2)C(C)(C)C1 [Compound 226] | 17 | – | 11 |
| COCc1c(-c2cc(Nc3ccc(N4CCN(C5COC5)C[C@@H]4C)cn3)c(=O)n(C)c2)ccnc1-n1ccn2c3c(cc2c1=O)CC(C)(C)C3 [Compound 228] | 171 | – | 139 |
| Cn1cc(-c2ccnc(-n3ccn4c5c(cc4c3=O)CC(C)(C)C5)c2CO)cc(Nc2ccc(N3CCC4(CC3)COC4)cn2)c1=O [Compound 229] | 12 | – | 10 |
| Cn1cc(-c2ccnc(-n3ccn4c5c(cc4c3=O)CC(C)(C)C5)c2CO)cc(Nc2ccc(N3C[C@@H]4C[C@H]3CN4C3COC3)cn2)c1=O [Compound 230] | 29 | – | 20 |
| C[C@@H]1[C@H](C)N(c2ccc(Nc3cc(-c4ccnc(-n5ccn6c7c(cc6c5=O)CC(C)(C)C7)c4CO)cn(C)c3=O)nc2)CCN1C1COC1 [Compound 234] | 32 | – | 10 |
| Cn1cc(-c2ccnc(-n3ccn4c5c(cc4c3=O)CC(C)(C)C5)c2CO)cc(Nc2ccc(N3C4CC3CN(C3COC3)C4)cn2)c1=O [Compound 235] | 22 | – | 13 |

Continued by falling IC50 [2], values first:

| IC50 (BTK recombinant protein) [nM] | IC50 [1] [nM] | IC50 [2] [nM] | Structure (SMILES) |
| --- | --- | --- | --- |
| 11 | – | 8 | COCCN1C[C@H](C)N(c2ccc(Nc3cc(-c4ccnc(-n5ncn6c7c(cc6c5=O)CC(C)(C)C7)c4CO)cn(C)c3=O)nc2)C[C@H]1C [Compound 207] |
| 8 | – | 8 | Cn1cc(-c2ccnc(-n3ccn4c5c(cc4c3=O)CC(C)(C)C5)c2CO)cc(Nc2ccc(N3CCN(C4COC4)CC3)nn2)c1=O [Compound 222] |
| 40 | – | 8 | Cn1cc(-c2ccnc(-n3ccn4c5c(cc4c3=O)CC(C)(C)C5)c2CO)cc(Nc2ccc(N3CCC4(CCOC4)CC3)cn2)c1=O [Compound 233] |
| < 1 | – | 7 | C[C@H]1COCCN1c1ccc(Nc2cc(-c3ccnc(-n4ccn5c6c(cc5c4=O)CC(C)(C)C6)c3CO)cn(C)c2=O)nn1 [Compound 203] |
| 11 | – | 7 | C[C@H]1CN(C2COC2)CCN1c1ccc(Nc2cc(-c3ccnc(-n4ccn5c6c(cc5c4=O)CC(C)(C)C6)c3CO)cn(C)c2=O)nn1 [Compound 204] |
| 13 | – | 7 | COCCN1CCN(c2ccc(Nc3cc(-c4ccnc(-n5ncn6c7c(cc6c5=O)CC(C)(C)C7)c4CO)cn(C)c3=O)nc2)[C@@H](C)C1 [Compound 206] |
| 11 | – | 7 | C[C@H]1CN(C2COC2)CCN1c1ccc(Nc2cc(-c3cncc(-n4ccn5c6c(cc5c4=O)CC(C)(C)C6)c3CO)cn(C)c2=O)nc1 [Compound 216] |
| 11 | – | 5 | C[C@@H]1CN(c2ccc(Nc3cc(-c4ccnc(-n5ncn6c7c(cc6c5=O)CC(C)(C)C7)c4CO)cn(C)c3=O)nn2)[C@@H](C)CN1C1COC1 [Compound 209] |
| 8 | – | 5 | CC[C@H]1CN(C2COC2)CCN1c1ccc(Nc2cc(-c3ccnc(-n4ccn5c6c(c(F)c5c4=O)CCCC6)c3CO)cn(C)c2=O)nc1 [Compound 227] |
| – | 26 | 4 | CC1(C)Cc2cc3c(=O)n(-c4nccc(-c5cc(Nc6cc7n(n6)CCNC7)c6ncnn6c5)c4CO)ccn3c2C1 [Compound 17] |
| 4 | – | 4 | CCn1cc(Nc2cc(-c3ccnc(-n4ncn5c6c(cc5c4=O)CC(C)(C)C6)c3CO)cn3ncnc23)nn1 [Compound 208] |
| 5 | – | 4 | Cn1cc(-c2ccnc(-n3ccn4c5c(cc4c3=O)CC(C)(C)C5)c2CO)cc(Nc2ccc(N3CCN(C4COC4)CC34CC4)cn2)c1=O [Compound 231] |
| – | 8 | 2 | CN1CCn2nc(Nc3cc(-c4ccnc(-n5ccn6c7c(cc6c5=O)CC(C)(C)C7)c4CO)cn4ncnc34)cc2C1 [Compound 16] |
| – | 5 | 1 | CC1(C)Cc2cc3c(=O)n(-c4nccc(-c5cc(Nc6cc7n(n6)CCN(C6COC6)C7)c6ncnn6c5)c4CO)ccn3c2C1 [Compound 13] |
